Assay results: the supplement of paper PMC6045584
± gives the standard deviation of the averaged measurements.

What was measured:
MK-1775 = compound: C=CCn1c(=O)c2cnc(Nc3ccc(N4CCN(C)CC4)cc3)nc2n1-c1cccc(C(C)(C)O)n1 [MK-1775]; test: surviving fraction relative to DMSO-only wells; higher = less growth inhibition; conditions: exposure time: 5 days
Summary of the method: (§1)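 Log-phase tumour cell lines, 250–500 cells per well in 384-well plates, received inhibitors at 0.5, 1, 5, 10, 50, 100, 500 and 1000 nM continuously for five days, starting 24 hours after seeding. Viability was quantified with CellTiter-Glo luminescence and normalised to the median of DMSO-only wells to give surviving fraction. Three screens were run per line, and a line stayed in only with replicate Pearson r >0.7 and median Z' >0.3.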

BLEOMYCIN = compound: Cc1c(N)nc([C@H](CC(N)=O)NC[C@H](N)C(N)=O)nc1C(=O)N[C@H](C(=O)N[C@H](C)[C@@H](O)[C@H](C)C(=O)N[C@H](C(=O)NCCc1nc(-c2nc(C(=O)NCCC[S+](C)C)cs2)cs1)[C@@H](C)O)[C@@H](OC1OC(CO)C(O)C(O)C1OC1OC(CO)C(O)C(OC(N)=O)C1O)c1cnc[nH]1 [BLEOMYCIN]; test: as above; conditions: exposure time: 5 days
Summary of the method: as §1

Test System | surviving fraction (MK-1775; 0.5 nM) | surviving fraction (MK-1775; 1 nM) | surviving fraction (MK-1775; 5 nM) | surviving fraction (MK-1775; 10 nM) | surviving fraction (MK-1775; 50 nM) | surviving fraction (MK-1775; 100 nM) | surviving fraction (MK-1775; 500 nM) | surviving fraction (MK-1775; 1000 nM) | surviving fraction (BLEOMYCIN; 0.5 nM) | surviving fraction (BLEOMYCIN; 1 nM) | surviving fraction (BLEOMYCIN; 5 nM) | surviving fraction (BLEOMYCIN; 10 nM) | surviving fraction (BLEOMYCIN; 50 nM) | surviving fraction (BLEOMYCIN; 100 nM) | surviving fraction (BLEOMYCIN; 500 nM) | surviving fraction (BLEOMYCIN; 1000 nM)
CASKI CERVIX | 0.887 ± 0.032 | 0.916 ± 0.071 | 0.99 ± 0.044 | 0.919 ± 0.049 | 0.479 ± 0.022 | 0.187 ± 0.012 | 0.0533 ± 0.0051 | 0.0453 ± 0.0068 | 0.763 ± 0.063 | 0.767 ± 0.057 | 0.7 ± 0.051 | 0.636 ± 0.088 | 0.691 ± 0.023 | 0.612 ± 0.051 | 0.229 ± 0.018 | 0.141 ± 0.0035
SUM149.B1*.S BREAST | 1.1 ± 0.035 | 1.11 ± 0.053 | 1.1 ± 0.043 | 1.13 ± 0.017 | 1.07 ± 0.025 | 0.892 ± 0.018 | 0.198 ± 0.01 | 0.144 ± 0.0048 | 0.884 ± 0.032 | 0.943 ± 0.024 | 0.928 ± 0.028 | 0.883 ± 0.042 | 0.937 ± 0.066 | 0.939 ± 0.059 | 0.55 ± 0.061 | 0.394 ± 0.096
143B BONE | 0.998 ± 0.0057 | 1.01 ± 0.033 | 1.02 ± 0.045 | 1.02 ± 0.0028 | 1.025 ± 0.0057 | 0.993 ± 0.013 | 0.111 ± 0.011 | 0.067 ± 0.0042 | 0.978 ± 0.023 | 0.98 ± 0.023 | 0.995 ± 0.012 | 1.01 ± 0.042 | 0.946 ± 0.0014 | 0.977 ± 0.0014 | 0.82 ± 0.03 | 0.612 ± 0.028
MDAMB436 BREAST | 0.978 ± 0.045 | 0.969 ± 0.028 | 0.948 ± 0.031 | 0.902 ± 0.081 | 0.79 ± 0.073 | 0.66 ± 0.023 | 0.312 ± 0.013 | 0.317 ± 0.021 | 0.799 ± 0.027 | 0.825 ± 0.031 | 0.834 ± 0.024 | 0.791 ± 0.033 | 0.773 ± 0.031 | 0.814 ± 0.06 | 0.598 ± 0.056 | 0.506 ± 0.073
SNU475 LIVER | 1.05 ± 0.06 | 1.04 ± 0.032 | 1.04 ± 0.024 | 0.9893 ± 0.0081 | 0.941 ± 0.035 | 0.884 ± 0.054 | 0.58 ± 0.031 | 0.345 ± 0.033 | 0.8647 ± 0.0059 | 0.859 ± 0.0092 | 0.838 ± 0.014 | 0.844 ± 0.024 | 0.8043 ± 0.0023 | 0.752 ± 0.043 | 0.53 ± 0.025 | 0.384 ± 0.0084
HELA CERVIX | 1.04 ± 0.025 | 1.07 ± 0.045 | 1.02 ± 0.064 | 0.993 ± 0.059 | 1.15 ± 0.039 | 1.113 ± 0.0066 | 0.0972 ± 0.0083 | 0.0538 ± 0.0035 | 0.972 ± 0.026 | 0.932 ± 0.02 | 0.958 ± 0.024 | 0.963 ± 0.027 | 1.035 ± 0.0087 | 1.07 ± 0.061 | 0.803 ± 0.032 | 0.6 ± 0.062
93VU HEADNECK | 1.05 ± 0.098 | 0.996 ± 0.034 | 1.13 ± 0.1 | 1.01 ± 0.033 | 0.649 ± 0.063 | 0.416 ± 0.038 | 0.22 ± 0.021 | 0.165 ± 0.029 | 0.8 ± 0.006 | 0.83 ± 0.058 | 0.785 ± 0.011 | 0.783 ± 0.015 | 0.764 ± 0.058 | 0.633 ± 0.023 | 0.386 ± 0.025 | 0.327 ± 0.066
ZR751 BREAST | 1.18 ± 0.14 | 1 ± 0.16 | 0.999 ± 0.19 | 1.04 ± 0.15 | 1.01 ± 0.16 | 1.04 ± 0.17 | 0.733 ± 0.1 | 0.622 ± 0.086 | 0.985 ± 0.037 | 0.975 ± 0.083 | 0.925 ± 0.1 | 0.957 ± 0.19 | 0.905 ± 0.073 | 0.924 ± 0.17 | 0.897 ± 0.15 | 0.69 ± 0.12
S68 BREAST | 1.17 ± 0.41 | 1.18 ± 0.27 | 1.03 ± 0.11 | 0.848 ± 0.13 | 0.663 ± 0.093 | 0.329 ± 0.048 | 0.101 ± 0.008 | 0.0703 ± 0.011 | 0.907 ± 0.057 | 0.858 ± 0.22 | 1.04 ± 0.15 | 0.847 ± 0.44 | 1.14 ± 0.15 | 0.911 ± 0.1 | 0.56 ± 0.076 | 0.369 ± 0.083
SCC003 HEADNECK | 1.12 ± 0.07 | 1.08 ± 0.11 | 1.1 ± 0.12 | 1.11 ± 0.06 | 0.927 ± 0.026 | 0.874 ± 0.05 | 0.421 ± 0.08 | 0.247 ± 0.019 | 0.782 ± 0.088 | 0.787 ± 0.087 | 0.792 ± 0.076 | 0.822 ± 0.12 | 0.975 ± 0.012 | 0.934 ± 0.039 | 0.56 ± 0.05 | 0.457 ± 0.016
RDES SOFT TISSUE | 1.17 ± 0.088 | 1.09 ± 0.12 | 1.1 ± 0.077 | 1.08 ± 0.13 | 0.871 ± 0.3 | 1.15 ± 0.18 | 0.406 ± 0.055 | 0.187 ± 0.036 | 0.743 ± 0.081 | 0.794 ± 0.28 | 0.732 ± 0.089 | 0.783 ± 0.096 | 0.985 ± 0.27 | 0.915 ± 0.09 | 0.947 ± 0.19 | 0.582 ± 0.2
VCAP PROSTATE | 1.14 ± 0.079 | 1.14 ± 0.19 | 1.09 ± 0.042 | 1.08 ± 0.08 | 1.04 ± 0.12 | 0.52 ± 0.11 | 0.0963 ± 0.019 | 0.121 ± 0.019 | 0.905 ± 0.018 | 0.953 ± 0.077 | 1.07 ± 0.12 | 1.05 ± 0.12 | 1.07 ± 0.12 | 1.02 ± 0.078 | 0.84 ± 0.024 | 0.889 ± 0.081
SG43 HEADNECK | 1.22 ± 0.14 | 1.01 ± 0.11 | 1.02 ± 0.084 | 0.823 ± 0.063 | 0.906 ± 0.072 | 0.911 ± 0.06 | 0.783 ± 0.14 | 0.549 ± 0.14 | 1.13 ± 0.058 | 1.08 ± 0.13 | 1.02 ± 0.096 | 0.81 ± 0.18 | 0.583 ± 0.015 | 0.78 ± 0.087 | 0.613 ± 0.17 | 0.391 ± 0.13
CHLA90 AUTONOMIC GANGLIA | 1.03 ± 0.051 | 1.06 ± 0.073 | 0.981 ± 0.023 | 0.963 ± 0.024 | 0.791 ± 0.011 | 0.681 ± 0.036 | 0.0927 ± 0.0067 | 0.076 ± 0.013 | 0.941 ± 0.057 | 0.925 ± 0.035 | 0.906 ± 0.067 | 0.868 ± 0.025 | 0.864 ± 0.039 | 0.865 ± 0.021 | 0.827 ± 0.018 | 0.796 ± 0.032
NY BONE | 1.04 ± 0.056 | 1.01 ± 0.014 | 1.1 ± 0.017 | 1.03 ± 0.013 | 0.638 ± 0.04 | 0.254 ± 0.016 | 0.113 ± 0.0076 | 0.0633 ± 0.0021 | 0.9287 ± 0.0064 | 0.925 ± 0.054 | 0.938 ± 0.028 | 0.911 ± 0.026 | 0.793 ± 0.035 | 0.589 ± 0.044 | 0.238 ± 0.0045 | 0.161 ± 0.012
SCC36 HEADNECK | 1.05 ± 0.066 | 1.08 ± 0.12 | 1.18 ± 0.065 | 0.995 ± 0.053 | 0.906 ± 0.035 | 0.739 ± 0.037 | 0.323 ± 0.029 | 0.228 ± 0.021 | 0.763 ± 0.09 | 0.762 ± 0.064 | 0.726 ± 0.027 | 0.7173 ± 0.004 | 0.998 ± 0.081 | 0.907 ± 0.1 | 0.631 ± 0.011 | 0.499 ± 0.012
SUM159 BREAST | 1.06 ± 0.023 | 1.03 ± 0.021 | 1.04 ± 0.028 | 1.02 ± 0.022 | 1.01 ± 0.069 | 1.02 ± 0.057 | 0.69 ± 0.17 | 0.377 ± 0.16 | 1.07 ± 0.18 | 1.02 ± 0.094 | 1.01 ± 0.082 | 0.999 ± 0.086 | 0.948 ± 0.034 | 0.908 ± 0.031 | 0.673 ± 0.13 | 0.246 ± 0.065
HCC1954 BREAST | 0.762 ± 0.1 | 0.775 ± 0.012 | 1.08 ± 0.13 | 0.8722 ± 0.0025 | 0.719 ± 0.017 | 0.625 ± 0.0078 | 0.203 ± 0.013 | 0.102 ± 0.0042 | 0.4128 ± 0.0025 | 0.433 ± 0.01 | 0.42 ± 0.043 | 0.456 ± 0.0085 | 0.467 ± 0.037 | 0.415 ± 0.064 | 0.364 ± 0.061 | 0.417 ± 0.01
OS25HAL BONE | 0.9753 ± 0.0045 | 0.9973 ± 0.0092 | 1.03 ± 0.019 | 1.02 ± 0.025 | 0.973 ± 0.042 | 0.554 ± 0.026 | 0.0463 ± 0.0032 | 0.0417 ± 0.0025 | 0.885 ± 0.027 | 0.8967 ± 0.0078 | 0.924 ± 0.026 | 0.894 ± 0.027 | 0.936 ± 0.011 | 0.895 ± 0.058 | 0.511 ± 0.048 | 0.286 ± 0.004
HCT15 LARGE INTESTINE | 1.033 ± 0.0098 | 1.02 ± 0.032 | 1 ± 0.037 | 1.02 ± 0.035 | 1.05 ± 0.037 | 1 ± 0.05 | 0.521 ± 0.087 | 0.121 ± 0.0021 | 0.883 ± 0.065 | 0.887 ± 0.025 | 0.852 ± 0.011 | 0.85 ± 0.019 | 0.805 ± 0.022 | 0.66 ± 0.044 | 0.15 ± 0.019 | 0.104 ± 0.0095
